Measured values as given in US20240174675A1, “SMALL MOLECULE REGULATORS OF ALVEOLAR TYPE 2 CELL PROLIFERATION FOR THE TREATMENT OF PULMONARY DISEASES” (THE SCRIPPS RESEARCH INSTITUTE, priority 2021, published 2024).
“Also recorded” adds a separate entry of the source.

Legend:
[1] = test system: bleomycin induced lung fibrosis in mice; assay: Bleomycin induced lung fibrosis model; assay type: in vivo, C57BL/6J mice; settings: for efficacy in combination with Nintedanib: Compound 46 0.5 mg/kg IT, E4D, Bliss independence, BALF protein content and Ashcroft scoring (FIG. 4)
Method: Bleomycin (Hospira) was used to induce lung fibrosis in mice. Body weight matched (24 gram˜28 gram) male C57BL/6J mice at 10-12 weeks of age were selected to use in bleomycin model.
For oral delivery, DPP4 inhibitors were dissolved in PBS resulting in clear solution. Vehicle control or DPP4 inhibitors were dosed at 10 ml/kg through oral gavage once or twice a day selected based on PK profile. For intratracheally delivered DPP4 inhibitors, compounds were dissolved in PBS resulting in clear solution. Vehicle control or DPP4 inhibitors were dosed at 2 ml/kg through a 22 g flexible catheter every four days.
0.5 U/kg Bleomycin or PBS in sham group was intratracheally injected into mice lung at day 0. DPP4 inhibitors or vehicle control were given to mice starting from one day before bleomycin injection (day −1).
All animals were sacrificed at day 20 after bleomycin injection. Bronchoalveolar lavage fluid (BALF) was retrieved using standard method. 1 ml 4% formalin was used to inflate the lung, which was subsequently fixed in 4% formalin for 24 hours and preserved in […] until histological process.
For readouts, body weight was measured every day; total protein content in BALF was quantified using BCA assay; pulmonary fibrosis was assessed using Masson's trichrome staining.

AEC2s = assay: Single cell RNA-sequencing from the lungs of mice (proliferating cell types); assay type: in vivo; settings: mouse lung, 0.5 mg/kg IT; for cell types proliferative in response to treatment: animals sacrificed 2 and 4 days after dosing (FIG. 5)
Method: Single cell RNA-sequencing from the lungs of mice was performed to understand which cell types are proliferative in response to compound 46 treatment.

[2] = Pharmacokinetic profiling, plasma and lung levels after intratracheal delivery in the rat; assay type: in vivo; settings: Male, Sprague Dawley strain, 2 mg/kg, 1 mg/ml in PBS; for MRT inf: read-out: MRT0-inf
Method: To assess the time course of the plasma and lung exposure of compounds disclosed herein, rodents were dosed IT with an exemplary compound of the present disclosure. The plasma and lung samples were taken at different time points. The drug levels were measured by LCMS.

[3] = test system: LPS induced acute lung injury in mice; assay: LPS-induced acute lung injury (ALI) model; assay type: in vivo, C57BL/6J mice; settings: mouse ALI model; every other day via intratracheal administration
Method: LPS from E. coli […] (Sigma) was used to induce acute lung injury in mice. Body weight matched (19 gram-22 gram) female C57BL/6J mice at 9-11 weeks of age were selected to use in ALI model.
For oral delivery, DPP4 inhibitors were dissolved in PBS resulting in clear solution. Vehicle control or DPP4 inhibitors were dosed at 10 ml/kg through oral gavage once or twice a day selected based on PK profile. For intratracheally delivered DPP4 inhibitors, compounds were dissolved in PBS resulting in clear solution. Vehicle control or DPP4 inhibitors were dosed at 2 ml/kg through a 22 g flexible catheter every other day.
LPS (1.5 mg/kg for testing orally delivered DPP4 inhibitors and 1.2 mg/kg for testing intratracheally delivered DPP4 inhibitors) or PBS in sham group was intratracheally injection into mice lung at day 0. DPP4 inhibitors or vehicle control were given to mice starting from one day before LPS injection (day −1).
All animals were sacrificed at day 3.5 after LPS injection. Bronchoalveolar lavage fluid (BALF) was retrieved using standard method. 1 ml 4% formalin was used to inflate the lung, which was subsequently fixed in 4% formalin for 24 hours and preserved in 70% EtOH until histological process.
For readouts, total protein content in BALF was quantified using BCA assay; pulmonary inflammation and damage were assessed using H & E staining.

[4] = Pharmacokinetic profiling, plasma and lung levels after intratracheal or inhalation delivery in the mouse; assay type: in vivo; settings: for Kp: read-out: AUC ratio; for AUC(0-t): read-out: AUC0-24; for MRT inf: read-out: MRT0-inf
Human DPP4 = target: T1, Human DPP4 (Homo sapiens, UniProt P27487); assay: DPP4 activity assay (DPP4 Activity Assay Kit, fluorescent substrate); assay type: biochemical; settings: Human DPP4; read-out: DPP4 inhibition IC50 [nM])
T1 construct: purchased Sigma-Aldrich MAK088
Method: DPP4 activity assay. Human DPP4 activity assay data were obtained using a DPP4 Activity Assay Kit (Sigma-Aldrich, MAK088) according to the manufacturer's instructions. Briefly, 10 μL of DPP4 Assay Buffer were transferred per well in low volume 384-well plates before transferring 10 μL of test compound dissolved in DPP4 assay buffer. To each well was added 5 μL of Master Reaction Mix containing a fluorescent substrate that becomes fluorescent upon cleavage by the enzyme. Fluorescence intensity measurements were recorded at 1-minute time intervals over the course of 20 minutes using an Envision Multimode Plate Reader (PerkinElmer).

[5] = Mouse, Male, CD-1 strain, Intratracheal, 2 mg/kg, 1 mg/ml in PBS, Lung
[6] = Mouse, Male, CD-1 strain, Intratracheal, 2 mg/kg, 1 mg/ml in PBS, Plasma
[7] = inhaled or intranasal, Mouse, Male, CD-1 strain, Inhalation, 10 mg/ml in PBS for 15 mins, Lung
[8] = inhaled or intranasal, Mouse, Male, CD-1 strain, Inhalation, 10 mg/ml in PBS for 15 mins, Plasma
[9] = inhaled or intranasal, Mouse, Male, CD-1 strain, Intratracheal, 2 mg/kg, 1 mg/ml in PBS, Lung
[10] = inhaled or intranasal, Mouse, Male, CD-1 strain, Intratracheal, 2 mg/kg, 1 mg/ml in PBS, Plasma
[11] = mouse, IT dosing at 2 mg/kg (FIG. 2)

T1 sequence (P27487 whole entry): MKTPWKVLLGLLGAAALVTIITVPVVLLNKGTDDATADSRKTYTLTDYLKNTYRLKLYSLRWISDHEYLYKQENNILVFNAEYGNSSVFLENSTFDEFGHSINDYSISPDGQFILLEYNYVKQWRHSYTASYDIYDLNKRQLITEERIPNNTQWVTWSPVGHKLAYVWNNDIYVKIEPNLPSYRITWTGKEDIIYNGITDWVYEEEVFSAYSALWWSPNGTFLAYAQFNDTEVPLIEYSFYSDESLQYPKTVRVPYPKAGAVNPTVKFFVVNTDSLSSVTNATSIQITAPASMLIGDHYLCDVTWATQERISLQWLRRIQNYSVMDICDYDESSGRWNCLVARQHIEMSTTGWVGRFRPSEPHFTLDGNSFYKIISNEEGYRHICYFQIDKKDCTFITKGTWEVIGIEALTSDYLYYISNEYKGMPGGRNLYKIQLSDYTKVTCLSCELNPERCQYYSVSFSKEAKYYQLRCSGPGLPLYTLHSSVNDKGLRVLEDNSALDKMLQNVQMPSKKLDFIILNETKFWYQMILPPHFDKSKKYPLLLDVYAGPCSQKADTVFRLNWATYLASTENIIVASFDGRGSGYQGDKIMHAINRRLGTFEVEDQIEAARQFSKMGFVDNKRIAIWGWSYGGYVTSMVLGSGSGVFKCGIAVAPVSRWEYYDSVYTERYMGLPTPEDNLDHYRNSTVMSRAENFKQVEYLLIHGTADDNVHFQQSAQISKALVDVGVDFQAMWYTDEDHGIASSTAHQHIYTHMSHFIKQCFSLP

CCCCCCN(Cc1cn(CCOCCOCCOC(=O)c2nc(C(F)(F)F)n3c2CN(C(=O)C[C@H](N)Cc2cc(F)c(F)cc2F)CC3)nn1)C[C@H](O)[C@@H](O)[C@H](O)[C@H](O)CO [Compound 46, 2-(2-(2-(4-((hexyl(2,3,4,5,6-pentahydroxyhexyl)amino)methyl)-1H-1,2,3-triazol-1-yl)ethoxy)ethoxy)ethyl 7-((R)-3-amino-4-(2,4,5-trifluorophenyl)butanoyl)-3-(trifluoromethyl)-5,6,7,8-tetrahydroimidazo[1,5-a]pyrazine-1-carboxylate]
efficacy in combination with Nintedanib ([1]; bleomycin model, listed as Compound 46, 0.5 mg/kg): synergistic efficacy | efficacy in combination with Nintedanib ([1]; bleomycin model, listed as compound 46, 0.5 mg/kg): impressive and synergistic efficacy | minimal efficacious dose ([1]; bleomycin model, every four-day intratracheal dosing regime): 0.5 mg/kg | efficacy in the bleomycin induced pulmonary fibrosis model ([1]; mouse, intratracheally 0.5 mg/kg every four days, body weight, BALF protein, fibrotic area, modified Ashcroft scores (FIG. 3)): displayed efficacy; also recorded: rescue of key metrics including body weight, BALF protein content, fibrotic area, and histological scoring | accumulation of AEC2s after treatment (AEC2s; 2 and 4 days after dosing): time-dependent accumulation of AEC2s | cell types proliferative in response to treatment (AEC2s; listed as Compound 46, 0.5 mg/kg): selectively expanded AEC2s | cell types proliferative in response to treatment (AEC2s; listed as compound 46, 0.5 mg/kg): only cycling and transitional AEC2s were induced to proliferate | AUC0-24 ([2]; Lung): 658004 ng·h/g | AUC0-inf ([2]; Lung): 4738852 ng·h/g | AUC ratio ([2]; Plasma): 1 | Cmax ([2]; inhaled or intranasal, Lung): 41400 ng/g | Tmax ([2]; inhaled or intranasal, Lung): 0.25 h | half-life ([2]; inhaled or intranasal, Lung): 119 h | Kp ([2]; inhaled or intranasal, Lung, read-out: AUC ratio): 145 | MRT inf ([2]; inhaled or intranasal, Lung): 186 h | Cmax ([2]; inhaled or intranasal, Plasma): 14700 ng/mL | Tmax ([2]; inhaled or intranasal, Plasma): 0.25 h | half-life ([2]; inhaled or intranasal, Plasma): 68.8 h | AUC(0-t) ([2]; inhaled or intranasal, Plasma, read-out: AUC0-24): 18000 ng·h/mL | AUC0-inf ([2]; inhaled or intranasal, Plasma, read-out: AUC0-inf): 18600 ng·h/mL | MRT inf ([2]; inhaled or intranasal, Plasma): 6 h | minimal efficacious dose [3]: 0.02 mg/kg | AUC0-inf ([4]; Mouse, Male, CD-1 strain, Inhalation, 10 mg/ml in PBS for 15 mins, Lung): 509,951 ng · h/g | AUC ratio ([4]; Mouse, Male, CD-1 strain, Inhalation, 10 mg/ml in PBS for 15 mins, Plasma): 1 | AUC0-24 [4, 5]: 258,902 ng · h/g | AUC0-inf [4, 5]: 1,082,408 ng · h/g | Tmax [4, 5]: 0.25 h | Kp [4, 5]: 1350 | AUC ratio [4, 6]: 1 | AUC(0-t) [4, 6]: 728 ng·h/mL | AUC0-inf ([4]; Mouse, Male, CD-1 strain, Intratracheal, 2 mg/kg, 1 mg/ml in PBS, Plasma, read-out: AUC0-inf): 729 ng·h/mL | MRT inf [4, 6]: 1.88 h | Cmax [4, 7]: 20900 ng/g | Tmax [4, 7]: 0.25 h | Kp [4, 7]: 9240 | Cmax [4, 8]: 35.9 ng/mL | Tmax [4, 8]: 0.5 h | half-life [4, 8]: 1.5 h | AUC(0-t) [4, 8]: 53.4 ng·h/mL | AUC0-inf ([4]; inhaled or intranasal, Mouse, Male, CD-1 strain, Inhalation, 10 mg/ml in PBS for 15 mins, Plasma, read-out: AUC0-inf): 55.2 ng·h/mL | MRT inf [4, 8]: 1.69 h | Cmax [4, 9]: 24600 ng/g | half-life [4, 9]: 54.1 h | MRT inf [4, 9]: 80.6 h | Cmax [4, 10]: 435 ng/mL | Tmax [4, 10]: 0.25 h | half-life [4, 10]: 1.28 h | plasma and lung exposure profiles compared to retagliptin [4, 11]: significantly higher plasma and lung exposure profiles compared to retagliptin | time retained in the lung [4, 11]: 7 days | IC50 (Human DPP4): 0.15 nM
